In patent publication US7498349B2, “Biaryl compounds having anti-infective activity” (Genesoft Pharmaceuticals, Inc., priority 2002, dated 2009):
≈ marks a conversion by molar mass, not a printed value. Like-named read-outs stand apart in the source and are kept apart here.

Experiments:
B. cereus ATCC 11778 = test: MIC, NCCLS broth microdilution assay; type: cell-based, Bacillus cereus; settings: for MIC: Bacillus cereus
S. pneumoniae ATCC 49619 = test: MIC, NCCLS broth microdilution assay; type: cell-based, Streptococcus pneumoniae; settings: for MIC: Streptococcus pneumoniae
S. aureus ATCC 13709 = test: MIC, NCCLS broth microdilution assay; type: cell-based, Staphylococcus aureus; settings: for MIC: Staphylococcus aureus, ATCC 13709 / MSSA, read-out: Minimum Inhibitory Concentration (MIC)
E. faecalis ATCC 29212 = test: MIC, NCCLS broth microdilution assay; type: cell-based, Enterococcus faecalis; settings: for MIC: Enterococcus faecalis
S. aureus ATCC 27660 = test: MIC, NCCLS broth microdilution assay; type: cell-based, Staphylococcus aureus; settings: for MIC: Staphylococcus aureus, ATCC 27660 / MRSA, read-out: Minimum Inhibitory Concentration (MIC)
C. albicans ATCC 38247 = test: MIC, antifungal assay; type: cell-based, Candida albicans; settings: for MIC: Candida albicans
Description: In vitro biological activity data were collected for a variety of microorganisms, including Bacillus cereus (ATCC 11778), Staphylococcus aureus (ATCC 33591; ATCC 27660, a methicillin resistant strain (MRSA); ATCC 13709, a methicillin sensitive strain (MSSA)), Escherichia coli (ATCC 25922), Enterococcus faecalis (ATCC 29212), Streptococcus pneumoniae (ATCC 49619; ATCC 51422, a penicillin resistant strain (PRSP)), Enterococcus faecium (ATCC 51559, a vancomycin resistant strain (VRE)), and Staphylococcus epidermidis (ATCC 12228). Additionally, antifungal activity data were collected for Candida albicans (ATCC 38247).
The minimal inhibition concentration (MIC) of these compounds was determined using the National Committee for Clinical Laboratory Standards (NCCLS) broth microdilution assay in microtiter plates, as set forth in: (1) the guidelines of the National Committee for Clinical Laboratory Standards (NCCLS) Document M7-A4 (NCCLS, 1997); (2) the guidelines of the National Committee for Clinical Laboratory Standards (NCCLS) Document M11-A4 (NCCLS, 1997); and (3) the guidelines and reference method of the National Committee for Clinical Laboratory Standards (NCCLS) Document M27 -T (NCCLS, 1995). For antifungal assays, the method recommended in Murray, PR., 1995 Manual of Clinical Microbiology (ASM Press, Washington, D.C.), was employed.

S. aureus ATCC 33591 = test: MIC, NCCLS broth microdilution assay; type: cell-based, Staphylococcus aureus; settings: for MIC: Staphylococcus aureus
Description: In vitro biological activity data were collected for a variety of microorganisms, including Bacillus cereus (ATCC 11778), Staphylococcus aureus (ATCC 33591; ATCC 27660, a methicillin resistant strain (MRSA); ATCC 13709, a methicillin sensitive strain (MSSA)), Escherichia coli (ATCC 25922), Enterococcus faecalis (ATCC 29212), Streptococcus pneumoniae (ATCC 49619; ATCC 51422, a penicillin resistant strain (PRSP)), Enterococcus faecium (ATCC 51559, a vancomycin resistant strain (VRE)), and Staphylococcus epidermidis (ATCC 12228).
The minimal inhibition concentration (MIC) of these compounds was determined using the National Committee for Clinical Laboratory Standards (NCCLS) broth microdilution assay in microtiter plates, as set forth in: (1) the guidelines of the National Committee for Clinical Laboratory Standards (NCCLS) Document M7-A4 (NCCLS, 1997); (2) the guidelines of the National Committee for Clinical Laboratory Standards (NCCLS) Document M11-A4 (NCCLS, 1997); and (3) the guidelines and reference method of the National Committee for Clinical Laboratory Standards (NCCLS) Document M27 -T (NCCLS, 1995).

E. coli ATCC 25922 = test: MIC, NCCLS broth microdilution assay; type: cell-based, Escherichia coli; settings: for MIC: Escherichia coli
[1] = S. aureus ATCC 13709, methicillin sensitive strain (MSSA)
[2] = S. aureus ATCC 27660, methicillin resistant strain (MRSA)

SMILES | Minimum Inhibitory Concentration (MIC) (B. cereus ATCC 11778; B. cereus ATCC 11778) | Minimum Inhibitory Concentration (MIC) (S. pneumoniae ATCC 49619; S. pneumoniae ATCC 49619) | Minimum Inhibitory Concentration (MIC) (S. aureus ATCC 13709; [1]) | Minimum Inhibitory Concentration (MIC) (E. faecalis ATCC 29212; E. faecalis ATCC 29212) | Minimum Inhibitory Concentration (MIC) (S. aureus ATCC 27660; [2]) | Minimum Inhibitory Concentration (MIC) (C. albicans ATCC 38247; C. albicans ATCC 38247) | Minimum Inhibitory Concentration (MIC) (S. aureus ATCC 33591; S. aureus ATCC 33591) | Minimum Inhibitory Concentration (MIC) (E. coli ATCC 25922; E. coli ATCC 25922) | further results
Cc1cc(NC(=O)c2cccnc2NCCN2CCNCC2)ccc1-c1cc2ccccc2o1 [Compound A-28] | + (12 ≦ MIC ≦ 32) | + (12 ≦ MIC ≦ 32) | ++ (4 < MIC < 12) | ++ (4 < MIC < 12) | ++ (4 < MIC < 12) | + (12 ≦ MIC ≦ 32) | ++ (4 < MIC < 12) | >32 µg/mL | 
Cc1cc(NC(=O)c2cccnc2NCCCCN)ccc1-c1cc2ccccc2o1 [Compound A-29] | +++ (MIC ≦ 4) | + (12 ≦ MIC ≦ 32) | +++ (MIC ≦ 4) | +++ (MIC ≦ 4) | +++ (MIC ≦ 4) | + (12 ≦ MIC ≦ 32) | +++ (MIC ≦ 4) | >32 µg/mL | 
Cc1cc(NC(=O)c2cccnc2NCCCN(C)C)ccc1-c1cc2ccccc2o1 [Compound A-30] | ++ (4 < MIC < 12) | + (12 ≦ MIC ≦ 32) | +++ (MIC ≦ 4) | +++ (MIC ≦ 4) | +++ (MIC ≦ 4) | + (12 ≦ MIC ≦ 32) | +++ (MIC ≦ 4) | >32 µg/mL | 
O=C(Nc1ccc(-c2cc3ccccc3o2)nc1)c1nsc(NCCN2CCNCC2)c1Cl [Compound A-35] | >32 µg/mL | >32 µg/mL | + (12 ≦ MIC ≦ 32) | + (12 ≦ MIC ≦ 32) | + (12 ≦ MIC ≦ 32) | +++ (MIC ≦ 4) | >32 µg/mL | >32 µg/mL | 
CN(C)CCCNc1snc(C(=O)Nc2ccc(-c3cc4ccccc4o3)nc2)c1Cl [Compound A-36] | ++ (4 < MIC < 12) | + (12 ≦ MIC ≦ 32) | +++ (MIC ≦ 4) | ++ (4 < MIC < 12) | + (12 ≦ MIC ≦ 32) | ++ (4 < MIC < 12) | ++ (4 < MIC < 12) | >32 µg/mL | 
NCCCCNc1snc(C(=O)Nc2ccc(-c3cc4ccccc4o3)nc2)c1Cl [Compound A-37] | >32 µg/mL | >32 µg/mL | +++ (MIC ≦ 4) | ++ (4 < MIC < 12) | +++ (MIC ≦ 4) | + (12 ≦ MIC ≦ 32) | ++ (4 < MIC < 12) | >32 µg/mL | 
NCCNc1snc(C(=O)Nc2ccc(-c3cc4ccccc4o3)nc2)c1Cl [Compound A-38] | +++ (MIC ≦ 4) | >32 µg/mL | +++ (MIC ≦ 4) | +++ (MIC ≦ 4) | +++ (MIC ≦ 4) | + (12 ≦ MIC ≦ 32) | +++ (MIC ≦ 4) | >32 µg/mL | 
CN(CCCN)CCCNc1ncccc1C(=O)Nc1ccc(-c2cc3ccccc3o2)nc1 [Compound A-39] |  |  |  |  |  |  |  |  | MIC (B. cereus ATCC 11778; ATCC11778, B. cereus ATCC 11778, read-out: Minimum Inhibitory Concentration (MIC)): 12 to 32 µg/mL (≈ 26.2 to 69.8 µM); MIC (S. pneumoniae ATCC 49619; ATCC49619, S. pneumoniae ATCC 49619, read-out: Minimum Inhibitory Concentration (MIC)): 12 to 32 µg/mL (≈ 26.2 to 69.8 µM); MIC (S. aureus ATCC 13709; [1]): 12 to 32 µg/mL (≈ 26.2 to 69.8 µM); MIC (E. faecalis ATCC 29212; ATCC29212, E. faecalis ATCC 29212, read-out: Minimum Inhibitory Concentration (MIC)): 12 to 32 µg/mL (≈ 26.2 to 69.8 µM); MIC (S. aureus ATCC 27660; [2]): 12 to 32 µg/mL (≈ 26.2 to 69.8 µM); MIC (C. albicans ATCC 38247; ATCC38247, C. albicans ATCC 38247, read-out: Minimum Inhibitory Concentration (MIC)): > 32 µg/mL; MIC (S. aureus ATCC 33591; ATCC33591, S. aureus ATCC 33591, read-out: Minimum Inhibitory Concentration (MIC)): 12 to 32 µg/mL (≈ 26.2 to 69.8 µM); MIC (E. coli ATCC 25922; ATCC25922, E. coli ATCC 25922, read-out: Minimum Inhibitory Concentration (MIC)): > 32 µg/mL
NCCNc1ncccc1C(=O)Nc1ccc(-c2cc3ccccc3o2)nc1 [Compound A-40] | + (12 ≦ MIC ≦ 32) | >32 µg/mL | ++ (4 < MIC < 12) | ++ (4 < MIC < 12) | ++ (4 < MIC < 12) | + (12 ≦ MIC ≦ 32) | + (12 ≦ MIC ≦ 32) | + (12 ≦ MIC ≦ 32) | 
CN(CCCN)CCCNc1cc(Cl)ccc1C(=O)Nc1ccc(-c2cc3ccccc3o2)nc1 [Compound A-41] | ++ (4 < MIC < 12) | + (12 ≦ MIC ≦ 32) | +++ (MIC ≦ 4) | +++ (MIC ≦ 4) | +++ (MIC ≦ 4) | ++ (4 < MIC < 12) | +++ (MIC ≦ 4) | ++ (4 < MIC < 12) | 
O=C(Nc1ccc(-c2cc3ccccc3o2)nc1)c1ccc(Cl)cc1NCCN1CCCC1 [Compound A-43] | ++ (4 < MIC < 12) | + (12 ≦ MIC ≦ 32) | ++ (4 < MIC < 12) | ++ (4 < MIC < 12) | ++ (4 < MIC < 12) | >32 µg/mL | ++ (4 < MIC < 12) | >32 µg/mL | 
CN(C)CCCNc1cc(Cl)ccc1C(=O)Nc1ccc(-c2cc3ccccc3o2)nc1 [Compound A-44] | ++ (4 < MIC < 12) | + (12 ≦ MIC ≦ 32) | ++ (4 < MIC < 12) | ++ (4 < MIC < 12) | ++ (4 < MIC < 12) | ++ (4 < MIC < 12) | ++ (4 < MIC < 12) | >32 µg/mL | 
NCCNc1cc(Cl)ccc1C(=O)Nc1ccc(-c2cc3ccccc3o2)nc1 [Compound A-45] |  |  |  |  |  |  |  |  | MIC (B. cereus ATCC 11778; ATCC11778, read-out: Minimum Inhibitory Concentration (MIC)): 4 to 12 µg/mL (≈ 9.83 to 29.5 µM); MIC (S. pneumoniae ATCC 49619; ATCC49619, read-out: Minimum Inhibitory Concentration (MIC)): 12 to 32 µg/mL (≈ 29.5 to 78.6 µM); MIC (S. aureus ATCC 13709): < 4 µg/mL; MIC (E. faecalis ATCC 29212; ATCC29212, read-out: Minimum Inhibitory Concentration (MIC)): 4 to 12 µg/mL (≈ 9.83 to 29.5 µM); MIC (S. aureus ATCC 27660): < 4 µg/mL; MIC (C. albicans ATCC 38247; ATCC38247, read-out: Minimum Inhibitory Concentration (MIC)): 4 to 12 µg/mL (≈ 9.83 to 29.5 µM); MIC (S. aureus ATCC 33591; ATCC33591, read-out: Minimum Inhibitory Concentration (MIC)): < 4 µg/mL; MIC (E. coli ATCC 25922; ATCC25922, read-out: Minimum Inhibitory Concentration (MIC)): > 32 µg/mL
O=C(Nc1ccc(-c2cc3ccccc3s2)cc1)c1nsc(NCCN2CCCC2)c1Cl [Compound A-46] | >32 µg/mL | >32 µg/mL | + (12 ≦ MIC ≦ 32) | >32 µg/mL | + (12 ≦ MIC ≦ 32) | >32 µg/mL | >32 µg/mL | >32 µg/mL | 
O=C(Nc1ccc(-c2cc3ccccc3s2)cc1)c1cccnc1NCCN1CCNCC1 [Compound A-48] | + (12 ≦ MIC ≦ 32) | >32 µg/mL | +++ (MIC ≦ 4) | >32 µg/mL | +++ (MIC ≦ 4) | >32 µg/mL | +++ (MIC ≦ 4) | >32 µg/mL | 
Cc1ccc2nc(-c3ccc(NC(=O)c4nsc(NCCCN(C)C)c4Cl)cc3)sc2c1 [Compound A-54] | +++ (MIC ≦ 4) | + (12 ≦ MIC ≦ 32) | +++ (MIC ≦ 4) | +++ (MIC ≦ 4) | +++ (MIC ≦ 4) | +++ (MIC ≦ 4) | +++ (MIC ≦ 4) | >32 µg/mL | 
Cc1ccc2oc(-c3ccc(NC(=O)c4nsc(NCCCN(C)C)c4Cl)cc3)cc2n1 [Compound A-55] | + (12 ≦ MIC ≦ 32) | + (12 ≦ MIC ≦ 32) | ++ (4 < MIC < 12) | + (12 ≦ MIC ≦ 32) | ++ (4 < MIC < 12) | ++ (4 < MIC < 12) | + (12 ≦ MIC ≦ 32) | >32 µg/mL | 
